Test results as given in US8524755B2 (priority 2009, dated 2013).

Columns and labels:
PDE4D (h) = molecular target: T1, PDE4D (h) (Homo sapiens, UniProt Q08499); assay: Enzyme assay PDE4D (h); format: biochemical; details: read-out: % Inhibition of Control Values @ 10 μM
T1 construct: host or cells: Sf9 cells
Description: (§1) The enzyme assays provided below will be familiar to those skilled in the art.
(§2) Analysis and Expression of Results: The results are expressed as a percent of control specific activity ((measured specific activity/control specific activity)×100) obtained in the presence of the test compounds.

Neuropeptide Y (ns) = assay: Binding Y (ns) (ag); set-up: species or system rat
Description: (§3) Radioligand binding assay methods utilized to measure the activity of compounds of the invention will be familiar to those skilled in the art. In each assay case, the assay components such as, for example, the cell-type, ligand, reference compound and the like, will be familiar to practitioners of such an assay.
(§4) Analysis and Expression of Results: Compounds of the invention were tested in the biochemical assays and percent inhibition of specific binding was determined. The specific ligand binding to the receptors is defined as the difference between the total binding and the nonspecific binding determined in the presence of an excess of unlabelled ligand. The results are expressed as a percent inhibition of control specific binding (100−((measured specific binding/control specific binding)×100)) obtained in the presence of test compounds.

kainate = assay: Binding kainate (ag); set-up: species or system rat
Description: as §3, §4

Na^+ channel (site 2) = assay: Binding Na+ channel (site 2) (aa); set-up: species or system rat
Description: as §3, §4

[1] = molecular target: T2, norepinephrine transporter (h) (Homo sapiens, UniProt P23975); assay: Binding norepinephrine transporter (h) (aa); details: read-out: % Inhibition of Control Specific Binding @ 10 μM
T2 construct: expressed in transfected cells; host or cells: CHO cells
Description: as §3, §4

Muscarinic M (ns) = assay: Binding M (ns) (aa); set-up: species or system rat
Description: as §3, §4

[2] = test system: Benzodiazepine BZD (central); assay: Binding BZD (central) (ag); set-up: species or system rat
Description: as §3, §4

guanylyl cyclase (basal) = molecular target: T3, guanylyl cyclase (basal) (Bos taurus, UniProt P16068+P19687); assay: Enzyme assay guanylyl cyclase (basal); format: biochemical, bovine
T3 construct: bovine lung; from tissue; host or cells: bovine lung
T3 sequence (P19687 1-691): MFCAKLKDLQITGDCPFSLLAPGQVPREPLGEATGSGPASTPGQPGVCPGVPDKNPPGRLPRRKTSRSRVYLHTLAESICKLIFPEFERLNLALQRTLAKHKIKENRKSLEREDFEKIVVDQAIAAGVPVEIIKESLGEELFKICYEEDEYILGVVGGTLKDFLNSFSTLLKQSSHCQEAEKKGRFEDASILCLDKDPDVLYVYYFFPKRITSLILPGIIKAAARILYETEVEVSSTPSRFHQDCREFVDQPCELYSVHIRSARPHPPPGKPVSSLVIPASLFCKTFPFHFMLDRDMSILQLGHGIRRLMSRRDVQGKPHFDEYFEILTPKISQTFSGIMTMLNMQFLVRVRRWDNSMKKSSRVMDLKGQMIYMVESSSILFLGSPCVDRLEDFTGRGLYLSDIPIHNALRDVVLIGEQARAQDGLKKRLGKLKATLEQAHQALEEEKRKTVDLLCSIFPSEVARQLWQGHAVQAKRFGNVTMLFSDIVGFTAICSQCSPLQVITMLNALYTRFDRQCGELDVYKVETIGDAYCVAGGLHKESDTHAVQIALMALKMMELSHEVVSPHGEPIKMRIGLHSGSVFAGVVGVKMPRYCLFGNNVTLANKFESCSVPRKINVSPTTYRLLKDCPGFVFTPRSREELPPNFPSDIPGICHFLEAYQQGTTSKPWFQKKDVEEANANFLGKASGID
T3 sequence (P16068 1-619): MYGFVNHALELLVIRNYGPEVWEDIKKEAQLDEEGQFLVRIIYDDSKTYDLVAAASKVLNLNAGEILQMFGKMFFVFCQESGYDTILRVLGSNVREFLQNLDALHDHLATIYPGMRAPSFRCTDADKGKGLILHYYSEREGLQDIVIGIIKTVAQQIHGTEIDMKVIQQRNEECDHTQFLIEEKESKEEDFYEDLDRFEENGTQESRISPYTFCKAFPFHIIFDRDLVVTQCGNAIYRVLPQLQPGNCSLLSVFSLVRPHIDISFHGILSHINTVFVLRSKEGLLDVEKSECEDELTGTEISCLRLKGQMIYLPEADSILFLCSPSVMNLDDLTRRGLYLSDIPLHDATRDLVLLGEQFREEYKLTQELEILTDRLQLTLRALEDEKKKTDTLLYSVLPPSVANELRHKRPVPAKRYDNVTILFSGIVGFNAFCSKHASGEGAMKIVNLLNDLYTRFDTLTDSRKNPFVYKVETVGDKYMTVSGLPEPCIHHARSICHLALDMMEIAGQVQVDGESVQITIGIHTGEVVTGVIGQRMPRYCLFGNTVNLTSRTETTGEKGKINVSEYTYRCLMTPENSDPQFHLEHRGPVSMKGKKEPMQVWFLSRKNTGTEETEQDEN
Description: as §1, §2

I2 = assay: Binding I2 (aa); set-up: species or system rat
Description: as §3, §4

PKCα (h) = molecular target: T4, PKCα (h) (Homo sapiens, UniProt P17252); assay: Enzyme assay PKCα (h); format: biochemical; details: read-out: % Inhibition of Control Values @ 10 μM
T4 construct: host or cells: insect cells
Description: as §1, §2

β1 (h) = molecular target: T5, β1 (h) (Homo sapiens, UniProt P08588); assay: Binding β1 (h) (ag); details: read-out: % Inhibition of Control Specific Binding @ 10 μM
T5 construct: expressed in transfected cells; host or cells: HEK-293 cells
Description: as §3, §4

hERG = molecular target: T6, hERG (Homo sapiens, UniProt Q12809); assay: Binding hERG (membrane preparation) (aa); details: read-out: % Inhibition of Control Specific Binding @ 10 μM
T6 construct: expressed in transfected cells; host or cells: HEK-293 cells
Description: as §3, §4

ATPase (Na^+/K^+) = assay: Enzyme assay ATPase (Na+/K+); format: biochemical, porcine
Description: as §1, §2

[3] = test system: Cl^− channel (GABA-gated); assay: Binding Cl− channel (GABA-gated) (aa); set-up: species or system rat
Description: as §3, §4

Dopamine D1 (h) = molecular target: T7, Dopamine D1 (h) (Homo sapiens, UniProt P21728); assay: Binding D1 (h) (aa); details: read-out: % Inhibition of Control Specific Binding @ 10 μM
T7 construct: expressed in transfected cells; host or cells: CHO cells
Description: as §3, §4

PCP = assay: Binding PCP (aa); set-up: species or system rat
Description: as §3, §4

T1 sequence (Q08499 whole entry): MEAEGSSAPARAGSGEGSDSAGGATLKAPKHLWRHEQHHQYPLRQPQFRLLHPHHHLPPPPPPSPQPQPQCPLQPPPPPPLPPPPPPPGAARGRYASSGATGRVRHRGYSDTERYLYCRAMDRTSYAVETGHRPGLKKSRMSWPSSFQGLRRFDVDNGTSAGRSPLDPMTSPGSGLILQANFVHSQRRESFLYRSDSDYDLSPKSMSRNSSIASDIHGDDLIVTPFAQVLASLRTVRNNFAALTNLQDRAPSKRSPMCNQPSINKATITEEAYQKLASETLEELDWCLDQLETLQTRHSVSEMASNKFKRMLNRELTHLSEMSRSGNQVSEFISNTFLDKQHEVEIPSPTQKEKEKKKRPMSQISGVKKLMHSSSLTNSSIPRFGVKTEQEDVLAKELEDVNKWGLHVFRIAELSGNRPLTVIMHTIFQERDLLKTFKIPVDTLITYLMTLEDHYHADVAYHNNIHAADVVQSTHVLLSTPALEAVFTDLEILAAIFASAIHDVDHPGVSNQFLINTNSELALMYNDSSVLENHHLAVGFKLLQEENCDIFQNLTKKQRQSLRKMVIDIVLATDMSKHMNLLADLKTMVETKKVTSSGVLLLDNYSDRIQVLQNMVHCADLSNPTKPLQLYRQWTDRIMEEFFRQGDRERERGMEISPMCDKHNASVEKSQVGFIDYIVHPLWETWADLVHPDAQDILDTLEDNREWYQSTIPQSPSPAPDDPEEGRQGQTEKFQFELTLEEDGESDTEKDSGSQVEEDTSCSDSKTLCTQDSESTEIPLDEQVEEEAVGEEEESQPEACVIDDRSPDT
T6 sequence (Q12809 whole entry): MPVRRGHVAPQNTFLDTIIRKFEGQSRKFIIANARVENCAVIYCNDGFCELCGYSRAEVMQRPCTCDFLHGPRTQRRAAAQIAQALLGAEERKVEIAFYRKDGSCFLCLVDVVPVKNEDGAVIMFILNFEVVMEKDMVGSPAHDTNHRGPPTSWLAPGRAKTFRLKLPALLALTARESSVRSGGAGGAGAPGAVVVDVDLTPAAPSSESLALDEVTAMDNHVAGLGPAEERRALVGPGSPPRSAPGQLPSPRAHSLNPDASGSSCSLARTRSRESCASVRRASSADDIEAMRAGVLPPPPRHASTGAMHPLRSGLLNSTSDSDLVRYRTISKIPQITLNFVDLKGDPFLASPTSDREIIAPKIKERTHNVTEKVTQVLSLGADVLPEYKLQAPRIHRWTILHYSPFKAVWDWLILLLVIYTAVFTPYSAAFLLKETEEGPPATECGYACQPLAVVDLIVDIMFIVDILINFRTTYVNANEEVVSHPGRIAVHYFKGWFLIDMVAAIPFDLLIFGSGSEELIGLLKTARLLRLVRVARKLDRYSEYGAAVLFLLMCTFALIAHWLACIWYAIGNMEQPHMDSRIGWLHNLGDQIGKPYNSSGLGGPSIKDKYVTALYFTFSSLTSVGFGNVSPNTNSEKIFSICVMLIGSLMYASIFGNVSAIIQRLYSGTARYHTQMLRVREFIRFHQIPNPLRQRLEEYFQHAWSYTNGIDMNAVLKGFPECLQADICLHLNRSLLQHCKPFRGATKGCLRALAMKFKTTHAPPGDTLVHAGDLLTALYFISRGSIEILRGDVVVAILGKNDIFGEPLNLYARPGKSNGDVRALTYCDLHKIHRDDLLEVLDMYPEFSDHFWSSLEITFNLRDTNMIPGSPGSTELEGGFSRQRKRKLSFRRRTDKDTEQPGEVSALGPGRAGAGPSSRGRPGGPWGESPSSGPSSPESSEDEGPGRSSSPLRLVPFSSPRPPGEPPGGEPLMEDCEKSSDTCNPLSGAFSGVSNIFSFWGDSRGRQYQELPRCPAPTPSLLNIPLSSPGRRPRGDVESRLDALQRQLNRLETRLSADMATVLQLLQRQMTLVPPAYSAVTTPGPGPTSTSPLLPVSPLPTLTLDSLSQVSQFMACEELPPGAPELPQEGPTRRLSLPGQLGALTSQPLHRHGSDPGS
T5 sequence (P08588 whole entry): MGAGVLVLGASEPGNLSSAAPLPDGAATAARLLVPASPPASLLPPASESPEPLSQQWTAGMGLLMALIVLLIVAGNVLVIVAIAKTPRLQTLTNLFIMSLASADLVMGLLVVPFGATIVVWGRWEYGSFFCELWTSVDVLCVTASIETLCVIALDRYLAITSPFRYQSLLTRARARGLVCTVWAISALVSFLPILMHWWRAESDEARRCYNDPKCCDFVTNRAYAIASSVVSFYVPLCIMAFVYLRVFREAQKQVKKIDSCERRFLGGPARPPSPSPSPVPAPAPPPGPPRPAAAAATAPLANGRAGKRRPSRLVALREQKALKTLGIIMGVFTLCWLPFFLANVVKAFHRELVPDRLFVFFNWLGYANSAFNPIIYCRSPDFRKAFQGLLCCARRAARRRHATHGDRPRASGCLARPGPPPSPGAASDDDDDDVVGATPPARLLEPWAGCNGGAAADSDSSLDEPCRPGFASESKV
T7 sequence (P21728 whole entry): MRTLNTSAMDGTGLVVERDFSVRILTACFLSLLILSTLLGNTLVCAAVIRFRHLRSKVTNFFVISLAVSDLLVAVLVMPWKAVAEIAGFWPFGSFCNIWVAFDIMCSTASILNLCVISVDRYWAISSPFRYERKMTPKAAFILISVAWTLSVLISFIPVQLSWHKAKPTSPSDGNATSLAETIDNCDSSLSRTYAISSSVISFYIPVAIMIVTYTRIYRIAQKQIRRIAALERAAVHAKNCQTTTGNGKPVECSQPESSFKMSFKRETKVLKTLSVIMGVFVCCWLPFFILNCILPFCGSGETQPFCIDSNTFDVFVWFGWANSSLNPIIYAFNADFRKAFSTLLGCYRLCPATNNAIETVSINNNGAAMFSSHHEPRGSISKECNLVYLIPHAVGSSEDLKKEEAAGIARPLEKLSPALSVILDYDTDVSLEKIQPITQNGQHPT
T2 sequence (P23975 whole entry): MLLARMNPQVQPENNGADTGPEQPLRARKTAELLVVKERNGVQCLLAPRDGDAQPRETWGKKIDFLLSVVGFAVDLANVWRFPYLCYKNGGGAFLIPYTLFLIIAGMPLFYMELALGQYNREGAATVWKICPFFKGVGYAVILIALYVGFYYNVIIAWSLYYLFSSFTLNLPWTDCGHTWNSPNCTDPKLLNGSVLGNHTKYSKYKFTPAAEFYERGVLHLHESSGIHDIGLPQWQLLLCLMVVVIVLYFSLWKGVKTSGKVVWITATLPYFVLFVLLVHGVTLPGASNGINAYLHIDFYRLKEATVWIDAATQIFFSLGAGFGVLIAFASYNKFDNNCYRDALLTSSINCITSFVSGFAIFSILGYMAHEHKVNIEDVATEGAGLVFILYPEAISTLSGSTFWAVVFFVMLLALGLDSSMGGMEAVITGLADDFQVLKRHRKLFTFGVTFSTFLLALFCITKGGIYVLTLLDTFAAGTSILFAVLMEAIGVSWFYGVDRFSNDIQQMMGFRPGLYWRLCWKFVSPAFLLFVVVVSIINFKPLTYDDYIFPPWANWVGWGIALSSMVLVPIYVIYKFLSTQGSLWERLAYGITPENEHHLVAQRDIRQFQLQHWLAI

Compound	inhibition at 10 µM (PDE4D (h)) [%]	% Inhibition of Control Specific Binding @ 10 μM (Neuropeptide Y (ns)) [%]	% Inhibition of Control Specific Binding @ 10 μM (kainate) [%]	% Inhibition of Control Specific Binding @ 10 μM (Na^+ channel (site 2)) [%]	inhibition at 10 µM [1] [%]	% Inhibition of Control Specific Binding @ 10 μM (Muscarinic M (ns)) [%]	% Inhibition of Control Specific Binding @ 10 μM [2] [%]	% Stimulation Relative to Control @ 10 μM (guanylyl cyclase (basal)) [%]	% Inhibition of Control Specific Binding @ 10 μM (I2) [%]	inhibition at 10 µM (PKCα (h)) [%]	inhibition at 10 µM (β1 (h)) [%]	inhibition at 10 µM (hERG) [%]	% Inhibition of Control Values @ 10 μM (ATPase (Na^+/K^+)) [%]	% Inhibition of Control Specific Binding @ 10 μM [3] [%]	inhibition at 10 µM (Dopamine D1 (h)) [%]	% Inhibition of Control Specific Binding @ 10 μM (PCP) [%]
CC1(C)C(=O)N(c2ccc(C#N)c(C(F)(F)F)c2)C(=O)N1c1ccc(C(N)=O)c(F)c1 [(MIII), 4-(3-(4-cyano-3-(trifluoromethyl)phenyl)-5,5-dimethyl-2,4-dioxoimidazolidin-1-yl)-2-fluorobenzamide]	-11	−2	−10	1	9	20	−20	−1	20	3	2	8	3	38	-17	2
CC1(C)C(=O)N(c2ccc(C#N)c(C(F)(F)F)c2)C(=S)N1c1ccc(C(=O)O)c(F)c1 [(MI), 4-(3-(4-cyano-3-(trifluoromethyl)phenyl)-5,5-dimethyl-4-oxo-2-thioxoimidazolidin-1-yl)-2-fluorobenzoic acid]	1	−6	−4	−5	56	18	−35	0	28	4	-2	-39	4	47	-18	0
CNC(=O)c1ccc(N2C(=O)N(c3ccc(C#N)c(C(F)(F)F)c3)C(=O)C2(C)C)cc1F [(MIV), 4-(3-(4-cyano-3-(trifluoromethyl)phenyl)-5,5-dimethyl-2,4-dioxoimidazolidin-1-yl)-2-fluoro-N-methylbenzamide]	-41	−2	−8	5	20	25	−29	2	8	5	3	10	−13	36	-17	4
CC1(C)C(=O)N(c2ccc(C#N)c(C(F)(F)F)c2)C(=S)N1c1ccc(C(N)=O)c(F)c1 [(MII), 4-(3-(4-Cyano-3-(trifluoromethyl)phenyl)-5,5-dimethyl-4-oxo-2-thioxoimidazolidin-1-yl)-2-fluorobenzamide]	-9	−6	−21	13	-13	1	−37	0	22	6	-7	7	−10	81	-14	5
